Results as given in patent publication US10456441B2, “Augmenting the immune response by promoting cell death of immune cells” (The University of Vermont and State Agricultural College, priority 2014, dated 2019).
Where a SMILES comes first, the peptide text is derived from it. The star is where a group is joined. Cbz = O=C(OCc1ccccc1)*; CH2F = FC*

Key:
[1] = test system: CD4 OT-II T cells; assay: OT-II αβ T cell cultures with DC and OVAp; assay type: cell-based, mice; settings: OVAp + DC treated with zVAD (50 μM)
Description: C57BL/6 OT-II mice contain CD4^+ T cells that respond to ovalbumin peptide (OVAp) 323-339 in the context of I-A^b (27). OT-II T cells were cultured with C57BL/6 DC at a 1:1 ratio in the presence of OVAp (10 μg/ml) with or without zVAD (50 μM). Supernatants were collected after 20 h and analyzed for production of IFN-γ and IL-17 by Bio-Plex.

[2] = animal models; cited from earlier work
[3] = test system: RIPK1; assay: RIPK1 cleavage in BMDC by immunoblot; assay type: cell-based, mice
Description: Day 7 BMDC were lysed in Tris-buffer containing Complete Protease Inhibitor (Roche), 0.2% NP-40 (Roche), and biotin-VAD-fmk (10 μM, MP Biomedicals, Santa Ana, Calif.). Insoluble cell fragments were removed by centrifugation, and the protein concentration of the resulting whole cell lysates was determined by Bradford assay (BioRad, Hercules, Calif.). Whole cell lysates (30 μg per lane) were separated by SDS-PAGE. Precipitation of active caspases was performed by rocking 600 μg of whole cell lysates initially with sepharose 4B beads (Sigma) at 4° C. for 2 hours to remove nonspecific binding of proteins to the beads, followed by overnight rocking incubation with streptavidin-conjugated sepharose beads (Invitrogen) at 4° C. Release of biotin-VAD-fmk-labeled caspases from the streptavidin beads was achieved by heating to 95° C. for 10 min in Laemmli buffer. After gel electrophoresis, proteins were transferred to PVDF membranes (0.2 μm pore size, Bio-Rad), and immunoblots were performed using antibodies (1 μg/ml) against caspase-3, caspase-8 (both Cell Signaling, Danvers, Mass.), caspase-9 (Stressgen, Farmingdale, N.Y.), and RIPK1 (BD Biosciences).

[4] = test system: γδ T cells; assay: Cell death of γδ T cells by TUNEL assay; assay type: cell-based, mice; settings: 50 μM zVAD
Description: Spleens were isolated and disrupted through nylon mesh in RPMI 1640 with 25 mm Hepes (MediaTech, Herndon, Va.) containing 5% (v/v) bovine calf serum (HyClone, Logan, Utah). Erythrocyte lysis of splenocytes was performed using Geys solution. γδ T lymphocytes were enriched by negative selection using a magnetic bead system (Qiagen, Valencia, Calif.) in which splenocytes were incubated with a cocktail of rat monoclonal antibodies to mouse CD4 (clone GK 1.5), CD8 (clone Tib105), class II (clone M5/114/15/2), CD11b (clone M1/70), and B220 (CD45R) (clone RA3-6B2). Cells were washed three times and then rocked with goat anti-rat conjugated magnetic beads at a 10:1 ratio of beads to cell at 4° C. for 45 min. Magnetic depletion was used to remove bead-bound cells. Finally, enriched γδ T cells were resuspended in complete medium (RPMI 1640 (Mediatech, Inc., Herndon, Va., USA), 2.5 mg/ml glucose (Sigma, St. Louis, Mo.), […] folate (Invitrogen, Carlsbad, Calif.), 110 μg/ml pyruvate (Invitrogen), 5×10^−5 M 2-mercaptoethanol (Sigma), 292.3 μg/ml glutamine (Invitrogen), 100 units/ml penicillin-streptomycin (Invitrogen), and 5% bovine calf serum). […] Cells were counted daily and supplied with fresh media containing 50 units/ml IL-2. […]

[5] = test system: human DC; assay: Cell death of human DC from peripheral blood monocytes; assay type: cell-based; settings: human DC cultured with GM-CSF, zVAD at doses very similar to murine DC, 20 h
Description: Human monocytes were obtained as […] cells by magnetic bead purification (Miltenyi Biotech, Auburn, Calif.) from peripheral blood of healthy volunteers. Myeloid DC were prepared by culture of monocytes in AIM V media plus 10% fetal calf serum (HyClone) with 800 U/ml of granulocyte-macrophage colony-stimulating factor (GM-CSF), (BioLegend, San Diego, Calif.) without or with 500 U/ml IL-4 (BioLegend). Cell death was examined by terminal deoxynucleotidyl transferase dUTP nick end labeling (TUNEL). Briefly, cells were stained for expression of cell surface molecules, and then fixed with 1% methanol-free formaldehyde followed by 70% ethanol. After washing, the TUNEL reaction was performed by incubating cells in 50 μl of reaction mix containing 10 units of terminal deoxribosyl transferase (TdT), 2.5 mM cobalt chloride in 1× TdT buffer, and 0.2 pmol/μl of FITC-dUTP (Roche, Indianapolis, Ind.) at 37° C. for 1 hour. The cells were washed twice and fixed in 1% methanol-free formaldehyde. Murine thymocytes were included as a positive control for apoptotic cells. Flow cytometry was performed on an LSRII (BD Biosciences, San Jose, Calif.) calibrated with compensation beads (BD Biosciences). Analysis was performed using FlowJo software (Tree Star, Inc., Ashland, Oreg.).

## CC(C)[C@H](NC(=O)OCc1ccccc1)C(=O)N[C@@H](C)C(=O)N[C@@H](CC(=O)O)C(=O)CF [zVAD, N-benzyloxycarbonyl-Val-Ala-Asp-fluoromethyl ketone] (Cbz-Val-Ala-Asp-CH2F)
[1]
  production of IFN-γ by OT-II T cells: considerably augmented
  production of IL-17 by OT-II T cells: considerably augmented
[2]
  reducing cell death after ischemia in multiple tissues: highly effective
[3]; BMDC cultured with GM-CSF only, zVAD
  cleavage of RIPK1: completely inhibited cleavage
[3]; BMDC cultured with GM-CSF+IL-4, zVAD
  cleavage of RIPK1: only partially inhibited
[4]
  cell death of γδ T cells: no increase in cell death
[5]
  death of human DC: highly susceptible to death
